Reference: patent US12667106B2, “Stabilized mutants of quorum quenching lactonase and use thereof in treatment of pathogens” (priority 2019, dated 2026)

Tests used:
[1] = target: putative parathion hydrolase (PPH) from M. tuberculosis, variant PPH_R2:P8-D12, H171Y (H172Y in SEQ ID NO: 1 numbering; SEQ ID NO: 3), MBP fusion SEQ ID NO: 12 (Mycobacterium tuberculosis, UniProt P9WHN9, H168Y); assay type: biochemical; settings: pH 8.3
[2] = target: putative parathion hydrolase (PPH) from M. tuberculosis, variant PPH_R2:P4-D5, G58V (G59V in SEQ ID NO: 1 numbering; SEQ ID NO: 2), MBP fusion SEQ ID NO: 11 (Mycobacterium tuberculosis, UniProt P9WHN9, G55V); assay type: biochemical; settings: pH 8.3

Structure (SMILES): CCCC(=O)CC(=O)N[C@H]1CCOC1=O [C6-oxo-HSL, N-(3-oxo-hexanoyl)-homoserine lactone]
- kcat [1]: 10.16 ± 1.46 s⁻¹
- kcat [2]: 18.66 ± 1.16 s⁻¹
